These results are taken from PMC7884711, “Identification of efficient prokaryotic cell-penetrating peptides with applications in bacterial biotechnology” (Communications Biology, 2021).

For one data set, the system named is HEK293 cells. The note with it: literature knowledge; cited from earlier work. The source says:
To date, mostly CPPs have been studied and utilized in mammalian cells, but in this study, we studied CPPs in bacteria, E. coli. Thus, it would be very useful to find the similarities and differences of CPPs between prokaryotes and eukaryotes.

Data set [1] has as its system E. coli DH5α cells. In words: Inhibition of bacterial cell growth by CPPs (Max OD600 relative to control). The class given is cell-based, Escherichia coli. The note with it: for Max OD (%) (Figure 3f): E. coli DH5α diluted 1/1000 in LB, 5 μg TAMRA-CPP (0.1 μg/μL), OD600 monitored 18 h, max OD of treated cells / max OD of control cells. On the procedure: E. coli DH5α cells were grown until OD600 = 1 at 37 °C with shaking at 200 rpm. […] Then, cell growth (OD600) was monitored for 18 h by using the Synergy^TM H1 hybrid multi-mode microplate reader (BioTek, Vermont, USA). As a control, we used E. coli cells that were not treated with CPPs.

The test system of data set [2] is E. coli DH5α cells. In words: Penetration efficiency of TAMRA-labeled CPPs, electroporation-based method, flow cytometry. The note with it: library CPPs, E. coli, electroporation, Tris buffer pH 7.5, 1 h, mean of n = 3–5. The class given is cell-based, Escherichia coli. The source says:
(§1) (Fig. 2a). […] First, we prepared electrocompetent and chemically competent cells.
Background: Flow cytometry measures light scatter and fluorescence of single cells or particles in a stream.

In data set [3] the test system is E. coli DH5α cells. In words: Penetration efficiency of TAMRA-labeled CPPs, chemical (CaCl2) treatment method, flow cytometry. It is filed as cell-based, Escherichia coli. The note with it: TAMRA fluorescence intensity in E. coli, library screen of 98 CPPs.
Description: as §1

The subject of the next data set is Methylomonas sp. DH-1. As to the kind of experiment: Marker gene excision using CPP-conjugated Cre recombinase. The note with it: Methylomonas sp. DH-1, 50 μL protein (0.05 μg/μL), electroporation, 4 mM NiCl2 selection. It is filed as cell-based. On the procedure: For the marker gene excision experiment, the pIns-LKTL plasmid was transformed into Methylomonas sp. DH-1, and then the marker genes flanked with loxP sites (loxP-kan^R-tetA-loxP) were integrated into a non-coding region of the Methylomonas sp. DH-1 genome. To select correctly knocked-in cells, the transformed cells were grown on an NMS agar plate containing kanamycin (10 μg/mL) and 30% methane for 3–7 days. The knocked-in cells were harvested from the plate and washed twice with distilled water, and 50 μL of cell suspension was mixed with 50 μL of CPP-conjugated Cre recombinase (0.05 μg/μL). […] After electroporation, cells were incubated in two types of recovery buffers (20 mM Tris-HCl at pH 7.5 or NMS medium) for 3 h and then spread on NMS agar plates containing 4 mM NiCl2. The colonies grown on the NiCl2 plates were transferred to an NMS agar plate and a kanamycin-containing NMS agar plate to confirm the excision of the marker genes.

With “KLPVM [CPP 63, TAMRA-labeled CPP of the 98-CPP library]”, in the data set with HEK293 cells, the “Efficiency as CPP in mammalian cells” value is on record as “highly efficient”. The “Max OD (%) (Figure 3f)” value was 69.833% in the data set on E. coli DH5α cells [1] (replicate 1), 72.8601% in the data set with E. coli DH5α cells [1] (replicate 2) and 66.2839% with E. coli DH5α cells [1] (replicate 3). Further, the “Growth rate (%)” value with E. coli DH5α cells [1] (E. coli growth with CPP, relative to control) amounted to 69.659%. Besides, the Anti-bacterial activity entry in the data set on E. coli DH5α cells [1] (class (Cytotoxic / Safe), cutoff of 50%) is on record as “Safe”. Besides, the “Penetration efficiency (TAMRA fluorescence in E. coli)” value with E. coli DH5α cells [2] is “low efficiency”. In addition, the “Penetration efficiency (TAMRA FI)” value with E. coli DH5α cells [3] came to 26.6874.

B1: Cre recombinase (No CPP): Cre recombinase without CPP, control (protein, UniProt P06956 1-343, looked up)
Recombinase cre: MSNLLTVHQNLPALPVDATSDEVRKNLMDMFRDRQAFSEHTWKMLLSVCRSWAAWCKLNNRKWFPAEPEDVRDYLLYLQARGLAVKTIQQHLGQLNMLHRRSGLPRPSDSNAVSLVMRRIRKENVDAGERAKQALAFERTDFDQVRSLMENSDRCQDIRNLAFLGIAYNTLLRIAEIARIRVKDISRTDGGRMLIHIGRTKTLVSTAGVEKALSLGVTKLVERWISVSGVADDPNNYLFCRVRKNGVAAPSATSQLSTRALEGIFEATHRLIYGAKDDSGQRYLAWSGHSARVGAARDMARAGVSIPEIMQAGGWTNVNIVMNYIRNLDSETGAMVRLLEDGD
For the molecule B1, the “Marker excision efficiency (%)” value in the data set with Methylomonas sp. DH-1 (recovery in NMS buffer 3 h, replicate 1) is reported as 10.353%; in the data set on Methylomonas sp. DH-1 (recovery in NMS buffer 3 h, replicate 2), 9.156%; in the data set with Methylomonas sp. DH-1 (recovery in NMS buffer 3 h, replicate 3), 9.01%; in the data set on Methylomonas sp. DH-1 (recovery in Tris-Cl buffer 3 h, replicate 1), 1.75%; in the data set on Methylomonas sp. DH-1 (recovery in Tris-Cl buffer 3 h, replicate 2) it was 2.19%; in the data set on Methylomonas sp. DH-1 (recovery in Tris-Cl buffer 3 h, replicate 3), 1.75%.
